From the kinase profiling compilation of Christmann-Franck et al. (2016)

Columns and labels:
Assay in all cases: radiometric filter-binding kinase assay, Kinase HotSpot
Conditions in all cases: compound 0.5 µM; ATP 10 µM
CAMK1G (human) = CAMK1G (human) (UniProt Q96NX5)
NEK6 (human) = NEK6 (human) (UniProt Q9HC98)
DYRK1A (human) = DYRK1A (human) (UniProt Q13627)
DYRK2 (human) = DYRK2 (human) (UniProt Q92630)
RET (human) = RET (human) (UniProt P07949)
ULK1 (human) = ULK1 (human) (UniProt O75385)
PRKCI (human) = PRKCI (human) (UniProt P41743)
TSSK2 (human) = TSSK2 (human) (UniProt Q96PF2)
ROCK2 (human) = ROCK2 (human) (UniProt O75116)
MAP2K1 (human) = MAP2K1 (human) (UniProt Q02750)
ADRBK1 (human) = ADRBK1 (human) (UniProt P25098)
SGK3 (human) = SGK3 (human) (UniProt Q96BR1)
CDC42BPB (human) = CDC42BPB (human) (UniProt Q9Y5S2)
NEK9 (human) = NEK9 (human) (UniProt Q8TD19)
DAPK3 (human) = DAPK3 (human) (UniProt O43293)
ABL1 (human) = ABL1 (human) (UniProt P00519)
STK10 (human) = STK10 (human) (UniProt O94804)
CDK1 CCNB1 (human) = CDK1 CCNB1 (human) (UniProt P06493+P14635)
ITK (human) = ITK (human) (UniProt Q08881)
PAK1 (human) = PAK1 (human) (UniProt Q13153)
STK3 (human) = STK3 (human) (UniProt Q13188)
FGR (human) = FGR (human) (UniProt P09769)
PIM2 (human) = PIM2 (human) (UniProt Q9P1W9)
PDPK1 (human) = PDPK1 (human) (UniProt O15530)
CHUK (human) = CHUK (human) (UniProt O15111)
LRRK2 (human) = LRRK2 (human) (UniProt Q5S007)
IKBKB (human) = IKBKB (human) (UniProt O14920)
ADRBK2 (human) = ADRBK2 (human) (UniProt P35626)
EPHB3 (human) = EPHB3 (human) (UniProt P54753)
ERBB2 (human) = ERBB2 (human) (UniProt P04626)
NTRK1 (human) = NTRK1 (human) (UniProt P04629)
TNK2 (human) = TNK2 (human) (UniProt Q07912)
TXK (human) = TXK (human) (UniProt P42681)
ACVR1 (human) = ACVR1 (human) (UniProt Q04771)

ULK1 (human), sequence (O75385 whole entry, looked up): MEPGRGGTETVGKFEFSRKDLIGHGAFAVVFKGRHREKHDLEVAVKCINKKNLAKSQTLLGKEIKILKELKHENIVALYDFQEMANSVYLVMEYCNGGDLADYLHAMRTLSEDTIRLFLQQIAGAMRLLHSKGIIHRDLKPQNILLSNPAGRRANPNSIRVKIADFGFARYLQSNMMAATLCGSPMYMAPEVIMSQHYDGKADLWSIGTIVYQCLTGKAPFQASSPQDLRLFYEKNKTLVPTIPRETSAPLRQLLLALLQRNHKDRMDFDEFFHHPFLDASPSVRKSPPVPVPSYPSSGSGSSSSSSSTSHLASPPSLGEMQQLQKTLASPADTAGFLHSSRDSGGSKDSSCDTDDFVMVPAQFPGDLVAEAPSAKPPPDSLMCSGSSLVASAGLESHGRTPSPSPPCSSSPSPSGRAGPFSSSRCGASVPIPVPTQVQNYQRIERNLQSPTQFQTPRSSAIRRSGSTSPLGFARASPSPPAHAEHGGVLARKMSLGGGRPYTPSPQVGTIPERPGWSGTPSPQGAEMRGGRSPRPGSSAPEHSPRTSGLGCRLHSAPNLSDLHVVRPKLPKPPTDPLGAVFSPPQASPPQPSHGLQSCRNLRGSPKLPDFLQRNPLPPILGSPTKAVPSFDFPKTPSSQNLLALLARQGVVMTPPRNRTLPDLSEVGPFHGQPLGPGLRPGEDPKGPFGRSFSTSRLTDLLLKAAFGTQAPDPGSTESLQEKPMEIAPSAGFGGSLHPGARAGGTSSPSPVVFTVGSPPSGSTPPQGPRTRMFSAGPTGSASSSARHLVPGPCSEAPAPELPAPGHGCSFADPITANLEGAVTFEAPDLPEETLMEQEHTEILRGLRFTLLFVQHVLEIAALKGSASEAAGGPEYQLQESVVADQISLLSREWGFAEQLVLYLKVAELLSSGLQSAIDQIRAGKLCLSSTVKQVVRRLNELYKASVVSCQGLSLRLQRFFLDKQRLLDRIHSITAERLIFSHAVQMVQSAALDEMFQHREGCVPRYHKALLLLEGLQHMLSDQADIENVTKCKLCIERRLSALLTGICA
TXK (human), sequence (P42681 whole entry, looked up): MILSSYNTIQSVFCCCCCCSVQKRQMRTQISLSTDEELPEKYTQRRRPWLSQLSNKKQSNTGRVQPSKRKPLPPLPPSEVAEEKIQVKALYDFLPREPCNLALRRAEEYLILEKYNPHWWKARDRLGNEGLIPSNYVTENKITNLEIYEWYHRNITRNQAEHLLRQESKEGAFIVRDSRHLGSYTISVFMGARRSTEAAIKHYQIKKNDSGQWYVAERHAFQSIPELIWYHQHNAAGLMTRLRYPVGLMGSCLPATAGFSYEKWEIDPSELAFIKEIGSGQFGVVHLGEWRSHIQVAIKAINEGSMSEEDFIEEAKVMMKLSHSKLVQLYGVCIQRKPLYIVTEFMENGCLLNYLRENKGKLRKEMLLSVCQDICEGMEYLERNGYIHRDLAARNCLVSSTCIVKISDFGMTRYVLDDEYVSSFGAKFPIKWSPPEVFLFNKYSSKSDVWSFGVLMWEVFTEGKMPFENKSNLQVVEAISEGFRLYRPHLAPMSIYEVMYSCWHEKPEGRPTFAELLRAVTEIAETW
PRKCI (human), sequence (P41743 whole entry, looked up): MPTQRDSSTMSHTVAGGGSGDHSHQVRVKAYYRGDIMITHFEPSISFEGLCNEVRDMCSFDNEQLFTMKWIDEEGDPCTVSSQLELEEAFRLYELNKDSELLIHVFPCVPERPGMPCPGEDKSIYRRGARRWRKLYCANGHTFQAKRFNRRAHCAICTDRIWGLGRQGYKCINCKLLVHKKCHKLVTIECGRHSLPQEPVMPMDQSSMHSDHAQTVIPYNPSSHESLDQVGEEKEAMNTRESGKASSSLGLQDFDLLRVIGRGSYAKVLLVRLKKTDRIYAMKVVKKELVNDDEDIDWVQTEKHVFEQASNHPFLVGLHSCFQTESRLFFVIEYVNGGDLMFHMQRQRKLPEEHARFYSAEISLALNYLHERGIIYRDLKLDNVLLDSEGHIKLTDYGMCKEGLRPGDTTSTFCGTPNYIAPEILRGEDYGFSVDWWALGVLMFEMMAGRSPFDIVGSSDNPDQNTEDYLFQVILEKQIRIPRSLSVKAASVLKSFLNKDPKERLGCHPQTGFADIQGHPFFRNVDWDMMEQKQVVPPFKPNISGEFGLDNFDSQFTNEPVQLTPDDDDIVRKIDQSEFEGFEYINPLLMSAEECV
MAP2K1 (human), sequence (Q02750 whole entry, looked up): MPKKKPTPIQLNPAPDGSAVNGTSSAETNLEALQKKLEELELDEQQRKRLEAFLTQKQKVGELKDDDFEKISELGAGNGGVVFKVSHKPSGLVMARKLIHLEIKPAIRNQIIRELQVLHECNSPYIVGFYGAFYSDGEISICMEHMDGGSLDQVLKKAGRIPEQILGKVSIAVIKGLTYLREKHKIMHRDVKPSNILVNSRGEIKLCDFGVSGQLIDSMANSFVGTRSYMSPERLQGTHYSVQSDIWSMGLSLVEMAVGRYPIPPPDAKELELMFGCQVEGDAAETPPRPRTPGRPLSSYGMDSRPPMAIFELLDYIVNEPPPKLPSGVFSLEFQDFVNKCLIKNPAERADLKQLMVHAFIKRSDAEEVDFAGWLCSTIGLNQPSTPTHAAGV
TSSK2 (human), sequence (Q96PF2 whole entry, looked up): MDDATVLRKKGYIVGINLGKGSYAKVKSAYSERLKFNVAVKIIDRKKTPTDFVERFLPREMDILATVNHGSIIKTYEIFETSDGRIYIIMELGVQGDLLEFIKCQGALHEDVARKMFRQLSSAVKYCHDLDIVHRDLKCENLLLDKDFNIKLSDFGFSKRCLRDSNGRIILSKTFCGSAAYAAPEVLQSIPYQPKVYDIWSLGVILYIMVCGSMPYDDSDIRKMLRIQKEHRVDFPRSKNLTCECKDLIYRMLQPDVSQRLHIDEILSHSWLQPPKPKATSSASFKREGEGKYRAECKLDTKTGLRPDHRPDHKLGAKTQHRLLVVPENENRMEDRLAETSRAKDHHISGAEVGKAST
CDK1 CCNB1 (human), sequence (P06493 whole entry, looked up): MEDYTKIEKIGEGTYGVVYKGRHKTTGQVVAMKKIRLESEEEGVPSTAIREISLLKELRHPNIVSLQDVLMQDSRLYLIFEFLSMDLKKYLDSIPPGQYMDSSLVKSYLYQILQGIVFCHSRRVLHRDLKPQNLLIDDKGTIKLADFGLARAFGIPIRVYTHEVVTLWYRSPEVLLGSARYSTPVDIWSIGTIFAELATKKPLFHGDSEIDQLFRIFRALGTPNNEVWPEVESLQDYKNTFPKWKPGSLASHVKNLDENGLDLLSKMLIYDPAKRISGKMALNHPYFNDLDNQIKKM
CDK1 CCNB1 (human), sequence (P14635 whole entry, looked up): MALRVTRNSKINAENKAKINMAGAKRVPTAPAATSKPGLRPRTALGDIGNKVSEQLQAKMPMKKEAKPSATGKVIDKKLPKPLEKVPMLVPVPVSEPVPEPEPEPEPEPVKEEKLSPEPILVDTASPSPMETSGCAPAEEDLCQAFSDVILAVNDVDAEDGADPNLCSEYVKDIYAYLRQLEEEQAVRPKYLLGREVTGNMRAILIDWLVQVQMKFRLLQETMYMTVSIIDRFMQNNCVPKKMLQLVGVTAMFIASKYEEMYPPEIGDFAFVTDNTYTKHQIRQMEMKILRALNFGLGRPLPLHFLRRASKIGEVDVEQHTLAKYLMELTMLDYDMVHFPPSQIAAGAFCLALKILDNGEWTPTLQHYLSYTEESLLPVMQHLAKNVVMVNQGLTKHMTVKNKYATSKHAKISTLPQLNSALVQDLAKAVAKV
NEK9 (human), sequence (Q8TD19 whole entry, looked up): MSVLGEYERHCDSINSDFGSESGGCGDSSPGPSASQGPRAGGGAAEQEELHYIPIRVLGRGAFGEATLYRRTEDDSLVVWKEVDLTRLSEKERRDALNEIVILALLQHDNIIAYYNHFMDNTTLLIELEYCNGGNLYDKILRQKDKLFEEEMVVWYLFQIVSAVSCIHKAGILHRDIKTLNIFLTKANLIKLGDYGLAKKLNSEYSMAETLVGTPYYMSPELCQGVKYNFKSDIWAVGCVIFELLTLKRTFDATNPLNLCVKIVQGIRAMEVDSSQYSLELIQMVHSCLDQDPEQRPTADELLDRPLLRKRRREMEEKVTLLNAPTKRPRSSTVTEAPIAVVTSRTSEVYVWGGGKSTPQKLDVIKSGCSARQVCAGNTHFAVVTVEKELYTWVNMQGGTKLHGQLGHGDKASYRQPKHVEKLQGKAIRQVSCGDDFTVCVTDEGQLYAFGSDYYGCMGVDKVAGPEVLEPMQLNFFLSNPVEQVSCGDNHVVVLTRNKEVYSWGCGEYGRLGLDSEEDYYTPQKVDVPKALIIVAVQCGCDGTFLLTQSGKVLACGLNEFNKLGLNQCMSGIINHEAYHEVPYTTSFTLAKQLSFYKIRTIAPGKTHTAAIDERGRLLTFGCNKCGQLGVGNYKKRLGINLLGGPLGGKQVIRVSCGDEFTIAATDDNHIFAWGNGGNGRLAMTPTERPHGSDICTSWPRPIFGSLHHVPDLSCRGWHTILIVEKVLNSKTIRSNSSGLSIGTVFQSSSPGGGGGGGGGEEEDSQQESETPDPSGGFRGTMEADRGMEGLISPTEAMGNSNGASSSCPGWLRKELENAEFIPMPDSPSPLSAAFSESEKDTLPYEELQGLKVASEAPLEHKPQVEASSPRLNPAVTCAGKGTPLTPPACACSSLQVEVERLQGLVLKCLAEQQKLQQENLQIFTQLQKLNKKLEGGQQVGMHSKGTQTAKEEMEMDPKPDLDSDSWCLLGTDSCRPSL
NEK6 (human), sequence (Q9HC98 whole entry, looked up): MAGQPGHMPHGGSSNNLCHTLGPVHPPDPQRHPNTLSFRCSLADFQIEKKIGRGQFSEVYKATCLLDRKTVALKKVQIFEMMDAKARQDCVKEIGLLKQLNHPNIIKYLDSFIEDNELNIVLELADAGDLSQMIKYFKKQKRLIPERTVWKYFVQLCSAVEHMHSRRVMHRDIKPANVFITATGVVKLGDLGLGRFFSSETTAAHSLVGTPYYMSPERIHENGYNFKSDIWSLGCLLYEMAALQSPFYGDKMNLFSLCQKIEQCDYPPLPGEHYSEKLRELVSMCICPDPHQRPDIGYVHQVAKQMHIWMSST

Compound | residual activity (CAMK1G (human)) [%] | residual activity (NEK6 (human)) [%] | residual activity (DYRK1A (human)) [%] | residual activity (DYRK2 (human)) [%] | residual activity (RET (human)) [%] | residual activity (ULK1 (human)) [%] | residual activity (PRKCI (human)) [%] | residual activity (TSSK2 (human)) [%] | residual activity (ROCK2 (human)) [%] | residual activity (MAP2K1 (human)) [%] | residual activity (ADRBK1 (human)) [%] | residual activity (SGK3 (human)) [%] | residual activity (CDC42BPB (human)) [%] | residual activity (NEK9 (human)) [%] | residual activity (DAPK3 (human)) [%] | residual activity (ABL1 (human)) [%] | residual activity (STK10 (human)) [%] | residual activity (CDK1 CCNB1 (human)) [%] | residual activity (ITK (human)) [%] | residual activity (PAK1 (human)) [%] | further results
Cc1nc2cc3nc(-c4cccs4)cnc3cc2n1C | 106 | 99.2 | 99.9 | 104 | 68.9 | 84.6 | 99.1 | 98.2 | 107 | 89.7 | 83.7 | 105 | 100 | 105 | 102 | 80.4 | 94.7 | 96.7 | 96.7 | 86.6 | residual activity (STK3 (human)): 97.1%; residual activity (FGR (human)): 89.3%; residual activity (PIM2 (human)): 114%; residual activity (PDPK1 (human)): 106%; residual activity (CHUK (human)): 96.2%; residual activity (LRRK2 (human)): 106%; residual activity (IKBKB (human)): 103%; residual activity (ADRBK2 (human)): 99.2%; residual activity (EPHB3 (human)): 101%; residual activity (ERBB2 (human)): 92%; residual activity (NTRK1 (human)): 113%; residual activity (TNK2 (human)): 100%; residual activity (TXK (human)): 102%; residual activity (ACVR1 (human)): 99.3%
O=C(O)/C=C/c1cc(Br)c(Br)c(Br)c1Br | 94.1 | 102 | 74.8 | 79.4 | 76.4 | 108 | 97.3 | 98.1 | 94.2 | 95.8 | 97.9 | 85.7 | 97.4 | 94.7 | 90.2 | 81.5 | 85.8 | 62.7 | 100 | 105 | residual activity (STK3 (human)): 91.4%; residual activity (FGR (human)): 98.4%; residual activity (PIM2 (human)): 52.8%; residual activity (PDPK1 (human)): 96.2%; residual activity (CHUK (human)): 89.5%; residual activity (LRRK2 (human)): 87.6%; residual activity (IKBKB (human)): 95.7%; residual activity (ADRBK2 (human)): 94.3%; residual activity (EPHB3 (human)): 89.8%; residual activity (ERBB2 (human)): 95.4%; residual activity (NTRK1 (human)): 91.1%; residual activity (TNK2 (human)): 110%; residual activity (TXK (human)): 98.7%; residual activity (ACVR1 (human)): 92.1%
